Measured values as given in patent US20250041292A1, “METHODS FOR TREATING PRIMARY IMMUNODEFICIENCY” (X4 Pharmaceuticals, Inc., priority 2021, published 2025).
Entries after “also recorded” stand apart in the source; their conditions may differ.

Tests used:
[1] = test system: WHIM mice; conditions: gavaged daily 100 mg/kg for 1 or 3 weeks; cited from earlier work
[2] = mouse, in vivo; cited from earlier work
[3] = test system: peripheral WBC counts and subsets; experiment: Long-term extension of phase 2 trial of mavorixafor in WHIM syndrome: WBC counts and infection rate; conditions: WHIM syndrome phase 2 extension
[4] = test system: peripheral WBC counts and subsets; experiment: Phase 1/2 trial of mavorixafor in combination with axitinib in advanced ccRCC: peripheral WBC counts; format: in vivo, human; conditions: mavorixafor 400 mg QD + axitinib
[5] = test system: CVID B cells; experiment: Chemotaxis assay: PBMCs from a patient with CVID due to NFKB1 mutation; format: cell-based, human
Description: PBMCs from patients or healthy donors were resuspended in chemotaxis buffer (RPMI 1640 media containing 20 mM HEPES, L-glutamine, and 0.5% BSA) at 2.0×10^6 cells/mL. […] Chemotaxis was assayed immediately after treatment with drug by placing 1.0×10^5 cells in 100 μL in the upper chamber of a Transwell 24-well plate separated by a 6.5 mm insert with 3 μm pores (Corning Life Sciences, Corning, NY, USA) from the lower chamber containing 600 μL of buffer with the indicated concentration of CXCL12. After incubation for 2.5 hours at 37° C. in a 5% CO2 incubator, the cells that migrated into the lower chamber were collected by centrifugation and resuspended in the assay buffer. Cells were blocked using Human TruStain FcX (BioLegend, Inc) for 10 minutes at RT, and subsequently B lymphocyte subtyping was performed (Alexa Fluor® 488 Mouse anti-human CD19 IgG1, κ, HIB19, BioLegend, Cat #302219). A fixed number of flow cytometry counting beads (Precision Count Beads; BioLegend) were added to each sample.
Both migrated cells and counting beads were counted by flow cytometry (CytoFLEX). Data were analyzed using FCS Express software, and the total number of migrated cells was calculated, according to the counted and total number of beads present in the sample. Results are presented as percentage of migrated B cells out of the total number of B cells placed in the chemotaxis chamber.

[6] = test system: peripheral WBC counts and subsets; experiment: Phase 1b trial of mavorixafor in combination with nivolumab in metastatic ccRCC: peripheral WBC counts; format: in vivo, human
[7] = test system: circulating white blood cells; conditions: 400-mg single-dose subject; cited from earlier work
[8] = test system: peripheral WBC counts and subsets; experiment: Phase 1b trial of mavorixafor in combination with ibrutinib in Waldenstrom's macroglobulinemia: peripheral WBC counts; format: in vivo, human; conditions: WM, interim analysis
[9] = mavorixafor 300 or 400 mg QD, after 6 months' (n=5) treatment
[10] = after 6 months' treatment (n=20)
[11] = after 6 months' (n=5) treatment
[12] = compared to screening values, after 4 weeks (n=8)

Molecule: Cc1cccnc1[C@@H]1CCC[C@H](c2nc3cccc(N4CCN(C)CC4)n3c2CO)N1C
- IL-7 production and B cell development [1]: restored IL-7 production and B cell development
- oral bioavailability [2]: orally bioavailable

Molecule: mavorixafor
- annualized infection rate ([3]; after 40 months, baseline 5.6 (SD±3.13) events): 2.2 (SD±0.93) events
- ALC [3, 9]: 239 % of baseline
- AMC [3, 9]: 486 % of baseline
- ANC [3, 9]: 652 % of baseline
- total WBC count [3, 9]: 339 % of baseline
- ALC ([4]; after 4 weeks (n=49)): 143 % of baseline
- AMC ([4]; after 4 weeks (n=49)): 182 % of baseline
- ANC ([4]; after 4 weeks (n=49)): 158 % of baseline
- total WBC count ([4]; after 4 weeks (n=49)): 153 % of baseline
- ALC [4, 10]: 139 % of baseline
- AMC [4, 10]: 166 % of baseline
- ANC [4, 10]: 171 % of baseline
- total WBC count [4, 10]: 159 % of baseline
- mavorixafor concentration effectively neutralizing the chemotaxis ([5]; CVID B cells cultured with 10 nm CXCL12, FIG. 1C): 0.1 µM
- effect on enhanced chemotaxis toward CXCL12 ([5]; CVID patient B cells, FIG. 1C): dose-dependent normalization effect on chemotaxis; also recorded: normalizes enhanced chemotaxis
- ALC ([6]; after 4 weeks (n=9)): 141 % of baseline
- AMC ([6]; after 4 weeks (n=9)): 179 % of baseline
- ANC ([6]; after 4 weeks (n=9)): 143 % of baseline
- total WBC count ([6]; after 4 weeks (n=9)): 146 % of baseline
- ALC ([6]; after 6 months (n=2)): 152 % of baseline
- AMC ([6]; after 6 months (n=2)): 191 % of baseline
- ANC ([6]; after 6 months (n=2)): 136 % of baseline
- total WBC count ([6]; after 6 months (n=2)): 147 % of baseline
- increase in the number of circulating white blood cells (Leukocytosis) [7]: 2.9 fold above baseline
- ALC [8, 11]: 106 % of baseline
- AMC [8, 11]: 172 % of baseline
- ANC [8, 11]: 192 % of baseline
- total WBC count [8, 11]: 163 % of baseline
- ALC [8, 12]: 219 % of baseline
- AMC [8, 12]: 186 % of baseline
- ANC [8, 12]: 170 % of baseline
- total WBC count [8, 12]: 192 % of baseline
